Data reported in US10822325B2, “Human GLUT5 specific inhibitors and methods of treatment” (UNM RAINFOREST INNOVATIONS, priority 2015, dated 2020).

Target: T1, GlcPSe,F348H (Staphylococcus epidermidis, UniProt A0A0H2VG78, F348H)
T1 construct: made in house; host or cells: Escherichia coli JM1100 (pBAD); right-side-out membrane vesicles
Test: Glucose uptake by GlcPSe,F348H mutant in right-side-out vesicles of JM1100 E. coli cells
Format: biochemical, bacterial
Settings: for effect on GlcPSe,F348H glucose transport: 2 mM compound, RSO vesicles
Experimental: Glucose transport assay for GlcPSe, wild-type and F348H mutant, was performed as described previouslyl^16. GlcPSe was cloned into the pBAD vector (Invitrogen) with C-terminal 6×His tag. F348H mutation was done with the site-directed mutagenesis method^37. GlcPSe proteins were expressed in the glucose transporter deficient Escherichia coli strain JM1100. Cells were grown at 37° C., in Luria Broth medium, with 100 μg/mL ampicillin. Protein expression was induced with 0.3 mM L-arabinose at O.D.600 nm 0.6. After 3 hours, cells were harvested by centrifugation at 2,500 g for 5 min. The right-side-out (RSO) membrane vesicles of JM1100 E. coli cells were prepared as described previouslyl^16,39,40. Transport assay was initiated by the addition of ^14C-radiolabeled glucose (Moravek Biochemicals) to 50 μL RSO vesicles in 100 mM KPi buffer pH 7.5, at O.D.600 nm of 2.0. After one minute, the transport was stopped and the radioactivity was measured as described below. When inhibitors were used, they were incubated with RSO vesicles 1 minute before transport initiation.
As MSNBA seemed to be specific for GLUT5, we focused on the residues in the MSNBA predicted binding site that were different from GLUT5 compared to GLUT1-4 and GlcPSe. Among these, H387 of GLUT5 potentially interacts with the […] group of MSNBA (FIG. 4b and FIG. 6), but is a Phe in GLUT1-4 as well as GlcPSe (FIG. 4c). To test if this residue is important for MSNBA inhibition, we constructed and expressed three mutant proteins: GlcPSe,F348H, GLUT1F379H, and GLUT5H387F. As with the wild-type proteins, GLUT1F379H and GLUT5H387F were recombinantly produced in insect cells, purified and reconstituted in proteoliposomes. Their transport activity was assayed by the entrance counter-flow method in proteolipsomes. Glucose transport of GlcPSe,F348H was determined in JM1100 E. coli cells in right-side-out (RSO) vesicles.

T1 sequence (A0A0H2VG78 whole entry F348H): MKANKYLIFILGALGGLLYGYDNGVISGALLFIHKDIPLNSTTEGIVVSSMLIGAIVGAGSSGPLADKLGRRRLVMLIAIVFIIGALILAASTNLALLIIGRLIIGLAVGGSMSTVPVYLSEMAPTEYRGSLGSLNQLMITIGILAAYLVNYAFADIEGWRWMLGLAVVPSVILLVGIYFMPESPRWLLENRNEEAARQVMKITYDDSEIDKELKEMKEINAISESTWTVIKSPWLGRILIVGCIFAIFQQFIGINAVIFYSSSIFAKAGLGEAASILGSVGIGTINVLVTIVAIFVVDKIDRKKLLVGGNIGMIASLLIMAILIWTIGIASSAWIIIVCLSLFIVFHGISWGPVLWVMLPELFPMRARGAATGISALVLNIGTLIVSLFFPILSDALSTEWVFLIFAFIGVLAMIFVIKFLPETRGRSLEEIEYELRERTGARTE

Compound | effect on GlcPSe,F348H glucose transport | inhibition at 2000 µM (read-out: inhibition of GlcPSe,F348H transport activity) [%]
O=C(CCc1ccc(O)cc1)c1c(O)cc(O)cc1O [phloretin, reference compound] | still inhibited | –
CS(=O)(=O)c1ccc(Nc2ccc3c(c2)OCO3)c([N+](=O)[O-])c1 [MSNBA, N-[4-(methylsulfonyl)-2-nitrophenyl]-1,3-benzodioxol-5-amine] | – | 75
C=C1[C@@H](C)[C@H]2[C@H](Cc3ccccc3)NC(=O)[C@]23OC(=O)/C=C/[C@H](O)CCC[C@@H](C)C/C=C/[C@H]3[C@@H]1O [cytochalasin B, reference compound] | decreased cytochalasin B inhibition | –
